Measurements: patent publication US4258043A, “Pyrazino-carbazoles, process for the production thereof and pharmaceutical agents” (Cassella Aktiengesellschaft, priority 1979, dated 1981)
Counter-ions that a name gives are not always drawn.

Columns and labels:
[1] = LD50 (acute toxicity); conditions: in vivo
[2] = system: Tetrabenazine; assay: animal or person; format: in vivo; conditions: read-out: ED50 Tetrabenazine Antagonism
[3] = in vivo; format: in vivo; conditions: in vivo; ratio of LD50 to ED50 tetrabenazine antagonism (head is a drawing); read-out: Dosage [drawing 7]

| SMILES | LD50 [1] [mg/kg] | ED50 [2] [mg/kg] | selectivity ratio [3] |
| --- | --- | --- | --- |
| Cc1ccc2c(c1)c1c3n2CCNC3CCC1.Cl (centres unmarked) [8-methyl-2,3,3a,4,5,6-hexahydro-1H-pyrazino[3,2,1-jk]carbazole-hydrochloride, reference compound] | 122 | 14 |  |
| Cc1ccc2c(c1)c1c3n2CCN=C3CCC1 [Example 1, 8-methyl-2,4,5,6-tetrahydro-1H-pyrazino[3,2,1-jk]carbazole] | 72 | 4 | 18 |
| COc1ccc2c(c1)c1c3n2CCN=C3CCC1 [Example 2, 8-methoxy-2,4,5,6-tetrahydro-1H-pyrazino[3,2,1-jk] carbazole-hydrochlorides] | 37 | 2 | 18.5 |
